We go through one compound from ChEMBL document CHEMBL1129395, “Targeting the minor groove of DNA: crystal structures of two complexes between furan derivatives of berenil and the DNA dodecamer d(CGCGAATTCGCG)2” (1996).

Assay type in all cases: functional
The subject of test [1] is Pneumocystis carinii. The experiment in a line: in vivo activity against Pneumocystis carinii at dose of 22.1 umol/kg/day.
The subject of another test is Cryptosporidium parvum. The experiment in a line: percentage of controls is reported as the counted oocysts obtained from alimentary tract tissues using a blinded protocol on Cryptosporidium parvum at dose of 62 umol/kg/day.
A short description of test [2]: In vitro increase in thermal melting of oligomer d(CGCGAATTCGCG)2.
Test [3] relates to Pneumocystis carinii. The experiment in a line: Percentage of control was reported as the counted cysts in lung tissue using blinded protocol of saline-treated controls on Pneumocystis carinii at dose of 22.1 umol/kg/day.

Take `N=C(N)c1ccc(OCCCCCOc2ccc(C(=N)N)cc2)cc1` [PENTAMIDINE]: the Toxicity in the test with Pneumocystis carinii [1] was determined as 2. Further, the Of control is recorded as 20.8% in the test with Cryptosporidium parvum and 1.47% in the test with Pneumocystis carinii [3]. The ΔTm in test [2] turned out to be 4.8.
